Results published in US20260345649A1, “PHARMACEUTICAL COMPOSITION FOR DESTRUCTION OF TUMOR BLOOD VESSELS” (SAMSUNG MEDICAL FOUNDATION, priority 2022, published 2026).

Assays:
[1] = tested on: human gastric cancer cells; test: Human gastric cancer cell xenograft in nude mice, alkaline 5-FU injected adjacent to tumor; format: in vivo, nude mice (Crj: BALB/c-nu/nu), human tumor cells; settings: 5 mg 5-FU pH 8.4, three times at one-week intervals, 4 weeks, P<0.05, FIG. 8
Experimental: The animals used in the experiment were six male nude mice (Crj: BALB/c-nu/nu mice, male) aged five weeks and weighing approximately 30 grams, purchased from Orient. The mice were subjected to a one-week acclimation period in the laboratory before use. Each nude mouse was subcutaneously xenografted with 5×10^6 human gastric cancer cells suspended in 100 μL of PBS on the dorsal subcutaneous layer. The tumor size was periodically measured, and when it reached a diameter of 1 cm, the drug administration experiment was conducted.
The experimental animals were divided into two groups. One group served as the control group, receiving only physiological saline, while the other group was administered 5 mg of 5-FU at pH 8.4. The drug was injected 0.2 cc adjacent to the tumor three times at one-week intervals. After one month, the major and minor axes of the tumors growing on the dorsal epidermis were measured.

CD31 = CD31 immunohistochemical staining of gastric tumor tissue after local injection of 5-FU in nude mice; format: in vivo
Experimental: To observe changes in vascular tissue within gastric tumor masses after local injection of 5-FU, immunohistochemical staining for CD31 and VEGF was performed.
For the control group, gastric tumor tissue was implanted in the dorsal region of nude mice, and when the tumor reached a size of 1 cm×1 cm, it was excised and used. For the 5-FU injection group, 5 mg of 5-FU was injected at the base of the tumor when the implanted tumor reached a size of 1 cm×1 cm. […] The immunohistochemical staining method was as follows.
To reduce endogenous peroxidase activity present in blood cells within the tissue, the slides were treated at room temperature with 3% H2O2 in methanol for 15 minutes. […] The slides were washed twice with TBST (Tris-buffered saline with 0.1% Tween® 20 Detergent) for 3 minutes each, followed by incubation at room temperature for 15 minutes with Detection Kit Reagent 1 (HRP Polymer-anti-mouse/rabbit IgG). […] For counterstaining, Harris hematoxylin was applied.
For result analysis, the proportion of the area stained for CD31-positive blood vessels and VEGF-positive cancer cells relative to the total tissue area was calculated, and a comparison was made between the control group and the 5-FU locally injected group.

O=c1[nH]cc(F)c(=O)[nH]1 [5-FU, 5-fluorouracil]
tumor size compared to before injection [1]: significantly reduced
distribution of necrotic tissue in tumor mass (CD31; 5 mg 5-FU, one week, compared to control group, FIG. 6): the distribution of necrotic tissue increased
Immuno-positive area (%) (CD31; CD31, proportion of total tissue area, 5 mg 5-FU, one week after injection, control group 0.87): 0.54%
stained area of CD31 and VEGF (CD31; CD31 and VEGF, compared to control group, Table 1): appeared smaller
vascular distribution within the tumor mass (CD31; compared to control group): reduced
stained area ratio of CD31 (CD31; compared to control group, FIG. 6): lower
